One experiment relates to MOLM-13 cells. The experiment is described as follows: Cell proliferation assay (alamarBlue), MOLM-13. It counts as cell-based. To be noted: Homo sapiens, 96 hours incubation, inhibition of cell proliferation. In a few lines: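 IC50 = concentration giving 50% growth inhibition relative to buffer-treated cells, after subtracting baseline fluorescence taken before dosing. Compound applied at 1E-5 to 1E-8 M for 96 h at 37 °C in RPMI1640 with 10% FCS; alamarBlue signal at 530/590 nm.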
For orientation: The colour change of resazurin is a common sign of viable cells or microbes.

In the next experiment the target is T1, BRD4 (BD1) (Homo sapiens, UniProt O60885).
T1 construct: with relatively long constructs also being possible, preferably amino acids 44-168; made in house; host or cells: E. coli
Kind of experiment: Binding assay BRD4/acetylated peptide H4 (TR-FRET protein-protein interaction assay). In a few lines: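 Displacement of biotin-Ac-H4 peptide from His6-tagged BRD4(BD1), final usually 10 nM, read as Eu-streptavidin to anti-His-XL665 TR-FRET (665/620 nm). Compounds tested at 11 doses up to 20 μM in duplicate, pH 7.5 HEPES, 22 °C then 4 °C incubation; IC50 by 4-parameter regression.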
(In general: Time-resolved FRET reads energy transfer from a long-lived donor to a nearby acceptor.)

In patent US9890147B2 (BAYER PHARMA AKTIENGESELLSCHAFT, priority 2012, dated 2018) one finds IC50 data, which are given here for 25 compounds.

The term IC50 denotes the concentration at which inhibition is half-maximal. `CNC(=O)N1N=C(c2ccc(-c3ccccc3C)cc2)c2cc(OC)c(OC)cc2CC1C` (racemic) [Example 72, (±)-7,8-dimethoxy-N,4-dimethyl-1-(2′-methylbiphenyl-4-yl)-4,5-dihydro-3H-2,3-benzodiazepine-3-carboxamide]: the figures for the IC50 with MOLM-13 cells and at BRD4 (BD1) were 660 nM and 210 nM, respectively.
Take `CNC(=O)N1N=C(c2ccc(-c3ccc(CO)cc3)cc2)c2cc(OC)c(OC)cc2CC1C` (racemic) [Example 94, (±)-1-[4′-(hydroxymethyl)biphenyl-4-yl]-7,8-dimethoxy-N,4-dimethyl-4,5-dihydro-3H-2,3-benzodiazepine-3-carboxamide]: the figures for the IC50 in the experiment with MOLM-13 cells and on BRD4 (BD1) were 380 nM and 40 nM, respectively.
`CNC(=O)N1N=C(c2ccc(N3CCOCC3)cc2)c2cc(OC)c(OC)cc2C[C@H]1C` [Example 7.1, (4R)-7,8-dimethoxy-N,4-dimethyl-1-[4-(morpholin-4-yl)phenyl]-4,5-dihydro-3H-2,3-benzodiazepine-3-carboxamide]: the IC50 in the experiment with MOLM-13 cells is more than 10000 nM; at BRD4 (BD1), 3190 nM.
`CNC(=O)N1N=C(c2ccc(-c3cccc(S(=O)(=O)NC)c3)cc2)c2cc(OC)c(OC)cc2CC1C` (racemic) [Example 121, (±)-7,8-dimethoxy-N,4-dimethyl-1-[3′-(methylsulphamoyl)biphenyl-4-yl]-4,5-dihydro-3H-2,3-benzodiazepine-3-carboxamide]: the IC50 with MOLM-13 cells was determined as 270 nM; at BRD4 (BD1), 40 nM.
With `CCOc1cc2c(cc1OCC)C(c1ccc(N3CCN(C)CC3)cc1)=NN(C(=O)NC)C(C)C2` (racemic) [Example 200, (±)-7,8-Diethoxy-N,4-dimethyl-1-[4-(4-methylpiperazin-1-yl)phenyl]-4,5-dihydro-3H-2,3-benzodiazepine-3-carboxamide], the concentration for half-maximal inhibition (IC50) with MOLM-13 cells turned out to be 180 nM; at BRD4 (BD1) it was 500 nM.
Consider `CNC(=O)N1N=C(c2ccc(N3CCC(N(C)C)CC3)cc2)c2cc(OC)c(OC)cc2C[C@H]1C` [Example 180.1, (4R)-1-{4-[4-(dimethylamino)piperidin-1-yl]phenyl}-7,8-dimethoxy-N,4-dimethyl-4,5-dihydro-3H-2,3-benzodiazepine-3-carboxamide], for which the figures for the IC50 in the experiment on MOLM-13 cells and at BRD4 (BD1) were 2700 nM and 390 nM, respectively.
Take `CNC(=O)N1N=C(c2ccc(-c3cccc(C(=O)NCCN(C)C)c3)cc2)c2cc(OC)c(OC)cc2CC1C` (racemic) [Example 113, (±)-1-(3′-{[2-(dimethylamino)ethyl]carbamoyl}biphenyl-4-yl)-7,8-dimethoxy-N,4-dimethyl-4,5-dihydro-3H-2,3-benzodiazepine-3-carboxamide]: the IC50 in the experiment on MOLM-13 cells was 1420 nM; on BRD4 (BD1), 40 nM.
For `CNC(=O)N1N=C(c2cccc(-c3c(C)nn(C)c3C)c2)c2cc(OC)c(OC)cc2CC1C` (racemic) [Example 53, (±)-7,8-dimethoxy-N,4-dimethyl-1-[3-(1,3,5-trimethyl-1H-pyrazol-4-yl)phenyl]-4,5-dihydro-3H-2,3-benzodiazepine-3-carboxamide], the IC50 in the experiment with MOLM-13 cells was 350 nM; on BRD4 (BD1), 40 nM.
On the same counts, the results for `CNC(=O)N1N=C(c2ccc(-c3cncnc3)cc2)c2cc(OC)c(OC)cc2CC1C` (racemic) [Example 111, (±)-7,8-dimethoxy-N,4-dimethyl-1-[4-(pyrimidin-5-yl)phenyl]-4,5-dihydro-3H-2,3-benzodiazepine-3-carboxamide] are 810 nM and 80 nM.
Turning to `CCC1Cc2cc(OC)c(OC)cc2C(c2ccc(N3CCN(S(C)(=O)=O)CC3)cc2)=NN1C(=O)NC` (racemic) [Example 203, (±)-4-ethyl-7,8-dimethoxy-N-methyl-1-{4-[4-(methylsulphonyl)piperazin-1-yl]phenyl}-4,5-dihydro-3H-2,3-benzodiazepine-3-carboxamide], the IC50 in the experiment with MOLM-13 cells is 3310 nM; on BRD4 (BD1), 840 nM.
On to `CNC(=O)N1N=C(c2ccc(-c3cnccc3C)cc2)c2cc(OC)c(OC)cc2CC1C` (racemic) [Example 82, (±)-7,8-dimethoxy-N,4-dimethyl-1-[4-(4-methylpyridin-3-yl)phenyl]-4,5-dihydro-3H-2,3-benzodiazepine-3-carboxamide], for which the results for the IC50 with MOLM-13 cells and at BRD4 (BD1) were 550 nM and 80 nM, respectively.
On the same counts, the results for `CNC(=O)N1N=C(c2ccc(-c3cccnc3C)cc2)c2cc(OC)c(OC)cc2CC1C` (racemic) [Example 124, (±)-7,8-dimethoxy-N,4-dimethyl-1-[4-(2-methylpyridin-3-yl)phenyl]-4,5-dihydro-3H-2,3-benzodiazepine-3-carboxamide] are 1070 nM and 90 nM.
For `CNC(=O)N1N=C(c2ccc(-c3cccc(C#N)c3)cc2)c2cc(OC)c(OC)cc2CC1C` (racemic) [Example 105, (±)-1-(3′-cyanobiphenyl-4-yl)-7,8-dimethoxy-N,4-dimethyl-4,5-dihydro-3H-2,3-benzodiazepine-3-carboxamide], the IC50 is 670 nM with MOLM-13 cells and 80 nM at BRD4 (BD1).
As for `CNC(=O)N1N=C(c2ccc(N3CCS(=O)(=O)CC3)cc2)c2cc(N3CCS(=O)(=O)CC3)c(OC(F)(F)F)cc2CC1C` (racemic) [Example 215, (±)-8-(1,1-dioxidothiomorpholin-4-yl)-1-[4-(1,1-dioxidothiomorpholin-4-yl)phenyl]-N,4-dimethyl-7-(trifluoromethoxy)-4,5-dihydro-3H-2,3-benzodiazepine-3-carboxamide], the IC50 with MOLM-13 cells was 2270 nM; on BRD4 (BD1), 380 nM.
On to `CNC(=O)N1N=C(c2ccc(N3CCC(NC(C)=O)CC3)cc2)c2cc(OC)c(OC)cc2CC1C` (racemic) [Example 182, (±)-1-[4-(4-acetamidopiperidin-1-yl)phenyl]-7,8-dimethoxy-N,4-dimethyl-4,5-dihydro-3H-2,3-benzodiazepine-3-carboxamide], for which the figures for the IC50 in the experiment on MOLM-13 cells and at BRD4 (BD1) were 400 nM and 50 nM, respectively.
On to `CNC(=O)N1N=C(c2ccc(-c3c(C)nn(C)c3C)cc2)c2cc(OC)c(OC)cc2C[C@H]1C` [Example 51.1, (4R)-7,8-dimethoxy-N,4-dimethyl-1-[4-(1,3,5-trimethyl-1H-pyrazol-4-yl)phenyl]-4,5-dihydro-3H-2,3-benzodiazepine-3-carboxamide], for which the values for the 50% inhibitory concentration (IC50) in the experiment with MOLM-13 cells and at BRD4 (BD1) were more than 10000 nM and 1860 nM, respectively.
The corresponding values for `CNC(=O)N1N=C(c2ccc(N3CCOC3=O)cc2)c2cc(OC)c(OC)cc2CC1C` (racemic) [Example 34, (±)-7,8-Dimethoxy-N,4-dimethyl-1-[4-(2-oxooxazolidin-3-yl)phenyl]-4,5-dihydro-3H-2,3-benzodiazepine-3-carboxamide] are 350 nM and 50 nM.
`CNC(=O)N1N=C(c2ccc(Cl)cc2)c2cc(OCCN3CCOCC3)ccc2CC1C` (racemic) [Example 32, (±)-1-(4-Chlorophenyl)-N,4-dimethyl-8-[2-(morpholin-4-yl)ethoxy]-4,5-dihydro-3H-2,3-benzodiazepine-3-carboxamide]: the half-inhibitory concentration (IC50) in the experiment on MOLM-13 cells was determined as 1180 nM; at BRD4 (BD1), 380 nM.
Take `CNC(=O)N1N=C(c2ccc(-c3cccnc3)cc2)c2cc(OC)c(OC)cc2CC1C` (racemic) [Example 103, (±)-7,8-dimethoxy-N,4-dimethyl-1-[4-(pyridin-3-yl)phenyl]-4,5-dihydro-3H-2,3-benzodiazepine-3-carboxamide]: the IC50 with MOLM-13 cells came out at 350 nM; at BRD4 (BD1) it was 40 nM.
For `CNC(=O)N1N=C(c2ccc(Cl)cc2)c2cc(OCCCN3CCN(C)CC3)ccc2C[C@@H]1C` [Example 164.2, (4S)-1-(4-chlorophenyl)-N,4-dimethyl-8-[3-(4-methylpiperazin-1-yl)propoxy]-4,5-dihydro-3H-2,3-benzodiazepine-3-carboxamide], the IC50 in the experiment on MOLM-13 cells was 420 nM; at BRD4 (BD1), 60 nM.
Regarding `CNC(=O)N1N=C(c2ccc(N3CCN(C)CC3)cc2)c2cc(OC)c(OC)cc2C[C@H]1C` [Example 127.2, (4R)-7,8-dimethoxy-N,4-dimethyl-1-[4-(4-methylpiperazin-1-yl)phenyl]-4,5-dihydro-3H-2,3-benzodiazepine-3-carboxamide], the results for the IC50 with MOLM-13 cells and at BRD4 (BD1) were more than 10000 nM and 8800 nM, respectively.
In the case of `CNC(=O)N1N=C(c2ccc(-c3ccccc3OC(F)(F)F)cc2)c2cc(OC)c(OC)cc2CC1C` (racemic) [Example 107, (±)-7,8-dimethoxy-N,4-dimethyl-1-[2′-(trifluoromethoxy)biphenyl-4-yl]-4,5-dihydro-3H-2,3-benzodiazepine-3-carboxamide], the IC50 amounted to 630 nM with MOLM-13 cells and 260 nM on BRD4 (BD1).
For `CNC(=O)N1N=C(c2ccc(N3CCC(OC)CC3)cc2)c2cc(OC)c(OC)cc2C[C@@H]1C` [Example 179.2, (4S)-7,8-dimethoxy-1-[4-(4-methoxypiperidin-1-yl)phenyl]-N,4-dimethyl-4,5-dihydro-3H-2,3-benzodiazepine-3-carboxamide], the IC50 in the experiment with MOLM-13 cells worked out at 80 nM; on BRD4 (BD1), 40 nM.
In the case of `CNC(=O)N1N=C(c2ccc(-c3c(C)noc3C)cc2)c2cc(-n3nc(C)cc3C)ccc2CC1C` (racemic) [Example 175, (±)-1-[4-(3,5-Dimethylisoxazol-4-yl)phenyl]-8-(3,5-dimethyl-1H-pyrazol-1-yl)-N,4-dimethyl-4,5-dihydro-3H-2,3-benzodiazepine-3-carboxamide], the IC50 was 440 nM in the experiment on MOLM-13 cells and 190 nM at BRD4 (BD1).
The corresponding values for `CNC(=O)N1N=C(c2ccc(N3CCN(C)CC3=O)cc2)c2cc(OC)c(OC)cc2CC1C` (racemic) [Example 43, (±)-7,8-dimethoxy-N,4-dimethyl-1-[4-(4-methyl-2-oxopiperazin-1-yl)phenyl]-4,5-dihydro-3H-2,3-benzodiazepine-3-carboxamide] are 840 nM and 300 nM.
